Literature values in patent US20150272847A1, “Skin Engaging Shaving Aid Comprising A Thermally Resilient Sensate And A TRPA1 Receptor Inhibitor” (The Gillette Company, priority 2014, published 2015).

Conditions: compared to menthol at 2 ppm

CC(C)[C@@H]1CC[C@@H](C)C[C@H]1C(=O)Nc1ccc(CC#N)cc1 [N-[4-(cyanomethyl)phenyl]-(1R,2S,5R)-2-isopropyl-5-methylcyclohexanecarboxamide]
Cooling as compared to menthol: about 10 ×
